In patent US20250186541A1, “DLL3 TARGETING PEPTIDES AND CONSTRUCTS THEREOF” (MARIANA ONCOLOGY INC., priority 2023, published 2025):
Numbered stars: 1 amine (or outer) side, 2 acyl side, 3 side chain; on linkers, the order of the positions; unused ones are H or OH. Bridge positions count the residues as written; N and C are the ends. Square brackets hold non-standard residues; d marks the D form. Peptide text beside a SMILES is read from it. * marks the point of attachment. Ala(1-CH2CO2H-4-piperidyl) = N[C@@H](CC1CCN(CC(=O)O)CC1)C(=O)O; DOTA = O=C(O)CN1CCN(CC(=O)O)CCN(CC(=O)*)CCN(CC(=O)O)CC1; Phe(4-CH2NH2) = NCc1ccc(C[C@H](N)C(=O)O)cc1; 1Nal = N[C@@H](Cc1cccc2ccccc12)C(=O)O; 2Nal = N[C@@H](Cc1ccc2ccccc2c1)C(=O)O; Ala(4-THP) = N[C@@H](CC1CCOCC1)C(=O)O; Phe(2-Me) = Cc1ccccc1C[C@H](N)C(=O)O; pXylylene = c1cc(C[*:2])ccc1C[*:1]; tBuAla = CC(C)(C)C[C@H](N)C(=O)O; NMeD = CN[C@@H](CC(=O)O)C(=O)O; αMeD = C[C@](N)(CC(=O)O)C(=O)O; AllylGly = C=CC[C@H](N)C(=O)O; Chg = N[C@H](C(=O)O)C1CCCCC1; αMeP = C[C@@]1(C(=O)O)CCCN1; Nle = CCCC[C@H](N)C(=O)O; CH2 = C([*:1])[*:2]; Ahx = NCCCCCC(=O)O

target: T1, human DLL3 (Homo sapiens, UniProt Q9NYJ7); experiment: Affinity determination by Surface Plasmon Resonance (SPR), Biacore, 1:1 binding model; details: biotinylated human DLL3 on streptavidin chip, 25° C.; NB = nonbinding
T1 construct: biotin (biotinylated)
T1 sequence (Q9NYJ7 27-618): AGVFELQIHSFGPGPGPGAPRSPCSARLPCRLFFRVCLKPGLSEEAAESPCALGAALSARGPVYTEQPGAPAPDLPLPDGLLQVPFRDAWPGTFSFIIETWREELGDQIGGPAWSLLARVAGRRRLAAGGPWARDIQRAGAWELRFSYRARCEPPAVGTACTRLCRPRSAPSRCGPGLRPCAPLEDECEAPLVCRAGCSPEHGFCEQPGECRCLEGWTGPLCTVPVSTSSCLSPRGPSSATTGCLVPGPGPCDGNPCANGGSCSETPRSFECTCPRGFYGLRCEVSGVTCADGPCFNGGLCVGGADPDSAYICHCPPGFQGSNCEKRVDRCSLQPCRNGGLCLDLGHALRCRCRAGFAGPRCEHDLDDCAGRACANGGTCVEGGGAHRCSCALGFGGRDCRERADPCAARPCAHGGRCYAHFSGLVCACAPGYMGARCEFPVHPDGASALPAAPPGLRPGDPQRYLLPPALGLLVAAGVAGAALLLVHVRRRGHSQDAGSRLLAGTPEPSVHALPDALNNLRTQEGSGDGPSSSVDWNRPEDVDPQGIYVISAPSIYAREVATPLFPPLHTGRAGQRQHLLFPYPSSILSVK
Summary of the method: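 SPR with biotinylated human DLL3 captured on a streptavidin chip, with a reference surface subtracted. Samples were injected at several concentrations at 100 μL/min in phosphate buffer with 137 mM NaCl, 2.7 mM KCl, 0.05% P20 and 2% DMSO. Kinetic and affinity constants came from a 1:1 binding fit.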

| SMILES | Kd [nM] |
| --- | --- |
| Cc1ccccc1C[C@H](NC(=O)[C@]1(C)CCCN1C(=O)[C@@H]1CSSC[C@H](NC(=O)[C@H](CC(=O)O)NC(=O)[C@H](CO)NC(=O)CCCCCNC(=O)CN2CCN(CC(=O)O)CCN(CC(=O)O)CCN(CC(=O)O)CC2)C(=O)N[C@@H](Cc2cccc3ccccc23)C(=O)N[C@@H](CC(C)(C)C)C(=O)N[C@@H](CCC(N)=O)C(=O)N[C@@H](Cc2ccc3ccccc3c2)C(=O)N[C@@H](CC(N)=O)C(=O)N1)C(=O)N[C@@H](CC(=O)O)C(N)=O [compound 155, DOTA-Ahx-S-D-C(3)-(1Nal)-(t-Bu-Ala)-Q-(2Nal)-N-C(3)-(aMe-P)-(2Me-F)-D-CONH2] ({DOTA-Ahx}-SDC[1Nal][tBuAla]Q[2Nal]NC[αMeP][Phe(2-Me)]D-NH2; disulfide 3-9) | 0.11 |
| CC(=O)N[C@@H](CO)C(=O)N[C@@H](CC(=O)O)C(=O)N[C@H]1CSSC[C@@H](C(=O)N2CCC[C@H]2C(=O)N[C@@H](Cc2ccccc2)C(=O)N[C@@H](CC(=O)O)C(N)=O)NC(=O)[C@H](CC(N)=O)NC(=O)[C@H](Cc2c[nH]c3ccccc23)NC(=O)[C@H](CCC(N)=O)NC(=O)[C@H](CC(C)C)NC(=O)[C@H](Cc2c[nH]c3ccccc23)NC1=O [compound 5, Ac-S-D-C(3)-W-L-Q-W-N-C(3)-P-F-D-CONH2] (Ac-SDCWLQWNCPFD-NH2; disulfide 3-9) | > 100 |
| CC(=O)N[C@H](C(=O)N[C@@H](CO)C(=O)N[C@@H](CC(=O)O)C(=O)N[C@H]1CSCSC[C@H](C(=O)N2CCC[C@@]2(C)C(=O)N[C@@H](Cc2ccccc2)C(=O)N[C@@H](CC(=O)O)C(=O)N[C@H](CCCCNC(=O)CN2CCN(CC(=O)O)CCN(CC(=O)O)CCN(CC(=O)O)CC2)C(N)=O)NC(=O)[C@H](CC(N)=O)NC(=O)[C@H](Cc2c[nH]c3ccccc23)NC(=O)[C@H](CCC(N)=O)NC(=O)[C@H](CC(C)C)NC(=O)[C@H](Cc2cccc3ccccc23)NC1=O)C1CCCCC1 [compound 122, Ac-(Chg)-S-D-C(1)-(1Nal)-L-Q-W-N-[D-Cys(1)]-(aMe-P)-F-D-D-Lys(DOTA)-CONH2] (Ac-[Chg]SDC[1Nal]LQWN[dC][αMeP]FD[dK](DOTA)-NH2; linker 4-10 via CH2) | > 30 |
| CCCC[C@H](NC(C)=O)C(=O)N[C@@H](CO)C(=O)N[C@@H](CC(=O)O)C(=O)N[C@H]1CSSC[C@@H](C(=O)N2CCC[C@H]2C(=O)N[C@@H](Cc2ccccc2)C(=O)N[C@@H](CC(=O)O)C(=O)N[C@H](CCCCNC(=O)CN2CCN(CC(=O)O)CCN(CC(=O)O)CCN(CC(=O)O)CC2)C(N)=O)NC(=O)[C@H](CC(N)=O)NC(=O)[C@H](Cc2c[nH]c3ccccc23)NC(=O)[C@H](CCC(N)=O)NC(=O)[C@H](CC(C)C)NC(=O)[C@H](Cc2c[nH]c3ccccc23)NC1=O [compound 79, Ac-Nle-S-D-C(3)-W-L-Q-W-N-C(3)-P-F-D-D-Lys(DOTA)-CONH2] (Ac-[Nle]SDCWLQWNCPFD[dK](DOTA)-NH2; disulfide 4-10) | 9 |
| CC(=O)N[C@H](C)C(=O)N[C@@H](CO)C(=O)N[C@@H](CC(=O)O)C(=O)N[C@H]1CSSC[C@@H](C(=O)N2CCC[C@@]2(C)C(=O)N[C@@H](Cc2ccccc2)C(=O)N(C)[C@@H](CC(=O)O)C(=O)N[C@H](CCCCNC(=O)CN2CCN(CC(=O)O)CCN(CC(=O)O)CCN(CC(=O)O)CC2)C(=O)O)NC(=O)[C@H](CC(N)=O)NC(=O)[C@H](Cc2ccc3ccccc3c2)NC(=O)[C@H](CCC(N)=O)NC(=O)[C@H](CC(C)(C)C)NC(=O)[C@H](Cc2cccc3ccccc23)NC1=O [compound 149, Ac-(D-Ala)-S-D-C(3)-(1Nal)-(t-Bu-Ala)-Q-(2Nal)-N-C(3)-(aMe-P)-F-(NMe-D)-D-Lys(DOTA)-CONH2] (Ac-[dA]SDC[1Nal][tBuAla]Q[2Nal]NC[αMeP]F[NMeD][dK](DOTA)-OH; disulfide 4-10) | > 30 |

Second part, the compound after the results:

| Kd [nM] | SMILES |
| --- | --- |
| > 30 | CC(=O)N[C@H](C(=O)N[C@@H](CO)C(=O)N[C@@H](CC(=O)O)C(=O)N[C@H]1CSCc2ccc(cc2)CSC[C@@H](C(=O)N2CCC[C@@]2(C)C(=O)N[C@@H](Cc2ccccc2)C(=O)N[C@@H](CC(=O)O)C(=O)N[C@H](CCCCNC(=O)CN2CCN(CC(=O)O)CCN(CC(=O)O)CCN(CC(=O)O)CC2)C(N)=O)NC(=O)[C@H](CC(N)=O)NC(=O)[C@H](Cc2c[nH]c3ccccc23)NC(=O)[C@H](CCC(N)=O)NC(=O)[C@H](CC(C)C)NC(=O)[C@H](Cc2cccc3ccccc23)NC1=O)C1CCCCC1 [compound 145, Ac-(Chg)-S-D-C(pDBX)-(1Nal)-L-Q-W-N-C(2)-(aMe-P)-F-D-D-Lys(DOTA)-CONH2] (Ac-[Chg]SDC[1Nal]LQWNC[αMeP]FD[dK](DOTA)-NH2; linker 4-10 via pXylylene) |
| 9 | CC(=O)NCCCCCC(=O)N[C@@H](CO)C(=O)N[C@@H](CC(=O)O)C(=O)N[C@H]1CSSC[C@@H](C(=O)N2CCC[C@H]2C(=O)N[C@@H](Cc2ccccc2)C(=O)N[C@@H](CC(=O)O)C(=O)N[C@H](CCCCNC(=O)CN2CCN(CC(=O)O)CCN(CC(=O)O)CCN(CC(=O)O)CC2)C(N)=O)NC(=O)[C@H](CC(N)=O)NC(=O)[C@H](Cc2c[nH]c3ccccc23)NC(=O)[C@H](CCC(N)=O)NC(=O)[C@H](CC(C)C)NC(=O)[C@H](Cc2c[nH]c3ccccc23)NC1=O [compound 74, Ac-Ahx-S-D-C(3)-W-L-Q-W-N-C(3)-P-F-D-D-Lys(DOTA)-CONH2] (Ac-[Ahx]SDCWLQWNCPFD[dK](DOTA)-NH2; disulfide 4-10) |
| 0.386 | CC(=O)N[C@@H](CC1CCN(CC(=O)O)CC1)C(=O)N[C@@H](CO)C(=O)N[C@@](C)(CC(=O)O)C(=O)N[C@H]1C/C=C/C[C@@H](C(=O)N2CCC[C@@]2(C)C(=O)N[C@@H](Cc2ccccc2)C(=O)N[C@@H](CC(=O)O)C(N)=O)NC(=O)[C@H](CC(N)=O)NC(=O)[C@H](Cc2ccc3ccccc3c2)NC(=O)[C@H](Cc2ccc(CNC(=O)CN3CCN(CC(=O)O)CCN(CC(=O)O)CCN(CC(=O)O)CC3)cc2)NC(=O)[C@H](CC(C)(C)C)NC(=O)[C@H](Cc2cccc3ccccc23)NC1=O [compound 208, Ac-[3-(piperidinyl-4-CH2CO2H)-Ala]-S-(aMe-Asp)-AllyG(4)-(1Nal)-(t-Bu-Ala)-[PAF(DOTA)]-(2Nal)-N-AllyG(4)-(aMe-P)-F-D-CONH2] (Ac-[Ala(1-CH2CO2H-4-piperidyl)]S[αMeD][AllylGly][1Nal][tBuAla][Phe(4-CH2NH2)](DOTA)[2Nal]N[AllylGly][αMeP]FD-NH2; staple (E) 4-10) |
| 11 | CC(C)C[C@@H]1NC(=O)[C@H](Cc2c[nH]c3ccccc23)NC(=O)[C@@H](NC(=O)[C@H](CC(=O)O)NC(=O)[C@H](CO)NC(=O)CCCCCNC(=O)CN2CCN(CC(=O)O)CCN(CC(=O)O)CCN(CC(=O)O)CC2)CSSC[C@@H](C(=O)N2CCC[C@H]2C(=O)N[C@@H](Cc2ccccc2)C(=O)N[C@@H](CC(=O)O)C(N)=O)NC(=O)[C@H](CC(N)=O)NC(=O)[C@H](Cc2c[nH]c3ccccc23)NC(=O)[C@H](CCC(N)=O)NC1=O [compound 72, DOTA-Ahx-S-D-C(3)-W-L-Q-W-N-C(3)-P-F-D-CONH2] ({DOTA-Ahx}-SDCWLQWNCPFD-NH2; disulfide 3-9) |
| 0.21 | CC(=O)N[C@H](C(=O)N[C@@H](CO)C(=O)N[C@@H](CC(=O)O)C(=O)N[C@H]1CSSC[C@@H](C(=O)N2CCC[C@@]2(C)C(=O)N[C@@H](Cc2ccccc2)C(=O)N[C@@H](CC(=O)O)C(=O)N[C@H](CCCCNC(=O)CN2CCN(CC(=O)O)CCN(CC(=O)O)CCN(CC(=O)O)CC2)C(N)=O)NC(=O)[C@H](CC(N)=O)NC(=O)[C@H](Cc2c[nH]c3ccccc23)NC(=O)[C@H](CC2CCOCC2)NC(=O)[C@H](CC(C)C)NC(=O)[C@H](Cc2cccc3ccccc23)NC1=O)C1CCCCC1 [compound 132, Ac-(Chg)-S-D-C(3)-(1Nal)-L-(THPA)-W-N-C(3)-(aMe-P)-F-D-[D-Lys(DOTA)]-NH2] (Ac-[Chg]SDC[1Nal]L[Ala(4-THP)]WNC[αMeP]FD[dK](DOTA)-NH2; disulfide 4-10) |
| > 300 | CSCC[C@H](NC(C)=O)C(=O)N[C@@H](CO)C(=O)N[C@@H](CC(=O)O)C(=O)N[C@H]1CSSC[C@@H](C(=O)N2CCC[C@H]2C(=O)N[C@@H](Cc2ccccc2)C(=O)N[C@@](C)(CC(=O)O)C(=O)N[C@H](CCCCNC(=O)CN2CCN(CC(=O)O)CCN(CC(=O)O)CCN(CC(=O)O)CC2)C(N)=O)NC(=O)[C@H](CC(N)=O)NC(=O)[C@H](Cc2c[nH]c3ccccc23)NC(=O)[C@H](CCC(N)=O)NC(=O)[C@H](CC(C)C)NC(=O)[C@H](Cc2c[nH]c3ccccc23)NC1=O [compound 53, Ac-M-S-D-C(3)-W-L-Q-W-N-C(3)-P-F-(aMeD)-D-Lys(DOTA)-CONH2] (Ac-MSDCWLQWNCPF[αMeD][dK](DOTA)-NH2; disulfide 4-10) |
| 12.3 | CC(=O)N[C@@H](CO)C(=O)N[C@@H](CC(=O)O)C(=O)N[C@H]1CSSC[C@@H](C(=O)N2CCC[C@H]2C(=O)N[C@@H](Cc2ccccc2)C(=O)N[C@@H](CC(=O)O)C(=O)N[C@@H](CCCCNC(=O)CN2CCN(CC(=O)O)CCN(CC(=O)O)CCN(CC(=O)O)CC2)C(N)=O)NC(=O)[C@H](CC(N)=O)NC(=O)[C@H](Cc2c[nH]c3ccccc23)NC(=O)[C@H](CCC(N)=O)NC(=O)[C@H](CC(C)C)NC(=O)[C@H](Cc2c[nH]c3ccccc23)NC1=O [compound 86, Ac-S-D-C(3)-W-L-Q-W-N-C(3)-P-F-D-[L-Lys(DOTA)]-NH2] (Ac-SDCWLQWNCPFDK(DOTA)-NH2; disulfide 3-9) |
